From paper PMC8854719, “Phase 1A/1B dose-escalation and -expansion study to evaluate the safety, pharmacokinetics, food effects and antitumor activity of pamiparib in advanced solid tumours” (British Journal of Cancer, 2021)
Entries after “also recorded” stand apart in the source; their conditions may differ. Marks after values point to notes of the source that are not given here.

Assay: Safety and tolerability: adverse events, dose-limiting toxicities, MTD, RP2D (Phase 1A/1B)
Assay type: in vivo
Protocol: This was an open-label, Phase 1, dose-escalation/dose-expansion study, conducted across six study centres in Australia. The dose-escalation phase evaluated twice-daily (BID) and once-daily (QD) dosing, and the dose-expansion phase evaluated the BID RP2D from the dose-escalation phase and food effects (Fig. 1). The food-effects cohort comprised two sequences: fast followed by fed (sequence 1) and fed followed by fast (sequence 2). […] The decision to proceed to the next dose cohort was determined by the Safety Monitoring Committee and followed a modified 3 + 3 escalation scheme. […] When ≥2 DLTs occurred in the first 23 days of a dose level, the next lower dose level was declared the MTD. Safety was monitored and DLTs were assessed in all dose cohorts. […] The food-effects cohort investigated the effects of food on the PK of pamiparib in patients with advanced solid tumours.
The QD dosing regimen was added as an amendment to the protocol with the purpose of exploring the feasibility of a more convenient regimen.
Safety and tolerability were assessed throughout the study by monitoring adverse events (AEs), serious AEs, clinical laboratory measurements and physical examinations. Adverse events were categorised according to their severity (National Cancer Institute Common Terminology Criteria for Adverse Events v4.03) and relationship to the study treatment.

C[C@]12CCCN1CC1=NNC(=O)c3cc(F)cc4[nH]c2c1c34 [pamiparib]
Ascites, AE of any grade (80 mg BID (n = 10)): 1 (10.0) n (%)
Back pain, AE of any grade (80 mg BID (n = 10)): 0 (0.0) n (%)
Constipation, AE of any grade (80 mg BID (n = 10)): 4 (40.0) n (%)
Cough, AE of any grade (80 mg BID (n = 10)): 1 (10.0) n (%)
Decreased appetite, AE of any grade (80 mg BID (n = 10)): 2 (20.0) n (%)
Diarrhoea, AE of any grade (80 mg BID (n = 10)): 1 (10.0) n (%)
Dose-limiting toxicity (80 mg BID (n = 10)): 1 (10.0)^b n (%)
Dyspnoea, AE of any grade (80 mg BID (n = 10)): 0 (0.0) n (%)
Fatigue, AE of any grade (80 mg BID (n = 10)): 4 (40.0) n (%)
Headache, AE of any grade (80 mg BID (n = 10)): 0 (0.0) n (%)
Hypoalbuminemia, AE of any grade (80 mg BID (n = 10)): 0 (0.0) n (%)
Hypomagnesemia, AE of any grade (80 mg BID (n = 10)): 2 (20.0) n (%)
Hypophosphatemia, AE of any grade (80 mg BID (n = 10)): 0 (0.0) n (%)
Increased AST, AE of any grade (80 mg BID (n = 10)): 0 (0.0) n (%)
Muscle spasms, AE of any grade (80 mg BID (n = 10)): 1 (10.0) n (%)
Nausea, AE of any grade (80 mg BID (n = 10)): 8 (80.0) n (%)
Neutropenia, AE of any grade (80 mg BID (n = 10)): 3 (30.0) n (%)
Non-cardiac chest pain, AE of any grade (80 mg BID (n = 10)): 1 (10.0) n (%)
Pain in extremity, AE of any grade (80 mg BID (n = 10)): 0 (0.0) n (%)
Peripheral sensory neuropathy, AE of any grade (80 mg BID (n = 10)): 0 (0.0) n (%)
Pleural effusion, AE of any grade (80 mg BID (n = 10)): 0 (0.0) n (%)
Pyrexia, AE of any grade (80 mg BID (n = 10)): 1 (10.0) n (%)
Treatment-emergent AE (80 mg BID (n = 10)): 10 (100.0) n (%)
Treatment-emergent AE: Grade 3 or higher (80 mg BID (n = 10)): 4 (40.0) n (%)
Treatment-emergent AE: Leading to death (80 mg BID (n = 10)): 1 (10.0) n (%)
Treatment-emergent AE: Leading to dose interruption (80 mg BID (n = 10)): 5 (50.0) n (%)
Treatment-emergent AE: Leading to dose modification (80 mg BID (n = 10)): 5 (50.0) n (%)
Treatment-emergent AE: Leading to dose reduction (80 mg BID (n = 10)): 1 (10.0) n (%)
Treatment-emergent AE: Leading to treatment discontinuation (80 mg BID (n = 10)): 0 (0.0) n (%)
Treatment-emergent AE: Serious (80 mg BID (n = 10)): 3 (30.0) n (%)
Treatment-related AE (80 mg BID (n = 10)): 9 (90.0) n (%)
Treatment-related AE: Grade 3 or higher (80 mg BID (n = 10)): 3 (30.0) n (%)
Treatment-related AE: Leading to death (80 mg BID (n = 10)): 0 (0.0) n (%)
Treatment-related AE: Leading to dose interruption (80 mg BID (n = 10)): 5 (50.0) n (%)
Treatment-related AE: Leading to dose modification (80 mg BID (n = 10)): 5 (50.0) n (%)
Treatment-related AE: Leading to dose reduction (80 mg BID (n = 10)): 1 (10.0) n (%)
Treatment-related AE: Leading to treatment discontinuation (80 mg BID (n = 10)): 0 (0.0) n (%)
Treatment-related AE: Serious (80 mg BID (n = 10)): 1 (10.0) n (%)
Upper respiratory tract infection, AE of any grade (80 mg BID (n = 10)): 5 (50.0) n (%)
Urinary tract infection, AE of any grade (80 mg BID (n = 10)): 2 (20.0) n (%)
Vomiting, AE of any grade (80 mg BID (n = 10)): 2 (20.0) n (%)
Dose-limiting toxicities observed (description) (80 mg BID, n = 1): Grade 2 nausea
Abdominal pain, AE of any grade (120 mg BID (n = 5)): 0 (0.0) n (%)
Anaemia, AE of any grade (120 mg BID (n = 5)): 3 (60.0) n (%)
Ascites, AE of any grade (120 mg BID (n = 5)): 0 (0.0) n (%)
Back pain, AE of any grade (120 mg BID (n = 5)): 1 (20.0) n (%)
Constipation, AE of any grade (120 mg BID (n = 5)): 0 (0.0) n (%)
Cough, AE of any grade (120 mg BID (n = 5)): 1 (20.0) n (%)
Decreased appetite, AE of any grade (120 mg BID (n = 5)): 2 (40.0) n (%)
Diarrhoea, AE of any grade (120 mg BID (n = 5)): 2 (40.0) n (%)
Dose-limiting toxicity (120 mg BID (n = 5)): 2 (40.0)^c n (%)
Dyspnoea, AE of any grade (120 mg BID (n = 5)): 0 (0.0) n (%)
Fatigue, AE of any grade (120 mg BID (n = 5)): 2 (40.0) n (%)
Headache, AE of any grade (120 mg BID (n = 5)): 0 (0.0) n (%)
Hypoalbuminemia, AE of any grade (120 mg BID (n = 5)): 0 (0.0) n (%)
Hypomagnesemia, AE of any grade (120 mg BID (n = 5)): 0 (0.0) n (%)
Hypophosphatemia, AE of any grade (120 mg BID (n = 5)): 1 (20.0) n (%)
Increased AST, AE of any grade (120 mg BID (n = 5)): 1 (20.0) n (%)
Muscle spasms, AE of any grade (120 mg BID (n = 5)): 0 (0.0) n (%)
Nausea, AE of any grade (120 mg BID (n = 5)): 4 (80.0) n (%)
Neutropenia, AE of any grade (120 mg BID (n = 5)): 1 (20.0) n (%)
Non-cardiac chest pain, AE of any grade (120 mg BID (n = 5)): 1 (20.0) n (%)
Pain in extremity, AE of any grade (120 mg BID (n = 5)): 1 (20.0) n (%)
Peripheral sensory neuropathy, AE of any grade (120 mg BID (n = 5)): 0 (0.0) n (%)
Pleural effusion, AE of any grade (120 mg BID (n = 5)): 1 (20.0) n (%)
Pyrexia, AE of any grade (120 mg BID (n = 5)): 1 (20.0) n (%)
Treatment-emergent AE (120 mg BID (n = 5)): 5 (100.0) n (%)
Treatment-emergent AE: Grade 3 or higher (120 mg BID (n = 5)): 5 (100.0) n (%)
Treatment-emergent AE: Leading to death (120 mg BID (n = 5)): 0 (0.0) n (%)
Treatment-emergent AE: Leading to dose interruption (120 mg BID (n = 5)): 4 (80.0) n (%)
Treatment-emergent AE: Leading to dose modification (120 mg BID (n = 5)): 4 (80.0) n (%)
Treatment-emergent AE: Leading to dose reduction (120 mg BID (n = 5)): 1 (20.0) n (%)
Treatment-emergent AE: Leading to treatment discontinuation (120 mg BID (n = 5)): 2 (40.0) n (%)
Treatment-emergent AE: Serious (120 mg BID (n = 5)): 3 (60.0) n (%)
Treatment-related AE (120 mg BID (n = 5)): 5 (100.0) n (%)
Treatment-related AE: Grade 3 or higher (120 mg BID (n = 5)): 3 (60.0) n (%)
Treatment-related AE: Leading to death (120 mg BID (n = 5)): 0 (0.0) n (%)
Treatment-related AE: Leading to dose interruption (120 mg BID (n = 5)): 3 (60.0) n (%)
Treatment-related AE: Leading to dose modification (120 mg BID (n = 5)): 3 (60.0) n (%)
Treatment-related AE: Leading to dose reduction (120 mg BID (n = 5)): 1 (20.0) n (%)
Treatment-related AE: Leading to treatment discontinuation (120 mg BID (n = 5)): 2 (40.0) n (%)
Treatment-related AE: Serious (120 mg BID (n = 5)): 1 (20.0) n (%)
Upper respiratory tract infection, AE of any grade (120 mg BID (n = 5)): 0 (0.0) n (%)
Urinary tract infection, AE of any grade (120 mg BID (n = 5)): 2 (40.0) n (%)
Vomiting, AE of any grade (120 mg BID (n = 5)): 1 (20.0) n (%)
Dose-limiting toxicities observed (description) (120 mg BID, two patients, n = 1 each): Grade 2 nausea, grade 3 fatigue, and grade 3 paresthesia; also recorded: Grade 2 nausea and Grade 2 anorexia; also recorded: Grade 2 nausea, Grade 3 fatigue and Grade 3 paraesthesia
Diarrhea, AE (120 mg QD): 50.0%
Fatigue, AE (120 mg QD): 75.0%
Nausea, AE (120 mg QD): 50.0%
Dose-limiting toxicity (120 mg QD (n=8)): 0 (0.0) n (%)
Treatment-emergent AE (120 mg QD (n=8)): 8 (100.0) n (%)
Treatment-emergent AE: Grade 3 or higher (120 mg QD (n=8)): 5 (62.5) n (%)
Treatment-emergent AE: Leading to death (120 mg QD (n=8)): 0 (0.0) n (%)
Treatment-emergent AE: Leading to dose interruption (120 mg QD (n=8)): 6 (75.0) n (%)
Treatment-emergent AE: Leading to dose modification (120 mg QD (n=8)): 6 (75.0) n (%)
Treatment-emergent AE: Leading to dose reduction (120 mg QD (n=8)): 1 (12.5) n (%)
Treatment-emergent AE: Leading to treatment discontinuation (120 mg QD (n=8)): 0 (0.0) n (%)
Treatment-emergent AE: Serious (120 mg QD (n=8)): 2 (25.0) n (%)
Treatment-related AE (120 mg QD (n=8)): 6 (75.0) n (%)
Treatment-related AE: Grade 3 or higher (120 mg QD (n=8)): 3 (37.5) n (%)
Treatment-related AE: Leading to death (120 mg QD (n=8)): 0 (0.0) n (%)
Treatment-related AE: Leading to dose interruption (120 mg QD (n=8)): 4 (50.0) n (%)
Treatment-related AE: Leading to dose modification (120 mg QD (n=8)): 4 (50.0) n (%)
Treatment-related AE: Leading to dose reduction (120 mg QD (n=8)): 1 (12.5) n (%)
Treatment-related AE: Leading to treatment discontinuation (120 mg QD (n=8)): 0 (0.0) n (%)
Treatment-related AE: Serious (120 mg QD (n=8)): 0 (0.0) n (%)
Diarrhea, AE (160 mg QD): 45.5%
Fatigue, AE (160 mg QD): 63.6%
Nausea, AE (160 mg QD): 90.9%
Dose-limiting toxicity (160 mg QD (n=11)): 1 (9.1)^d n (%)
Treatment-emergent AE (160 mg QD (n=11)): 11 (100.0) n (%)
Treatment-emergent AE: Grade 3 or higher (160 mg QD (n=11)): 9 (81.8) n (%)
Treatment-emergent AE: Leading to death (160 mg QD (n=11)): 0 (0.0) n (%)
Treatment-emergent AE: Leading to dose interruption (160 mg QD (n=11)): 7 (63.6) n (%)
Treatment-emergent AE: Leading to dose modification (160 mg QD (n=11)): 7 (63.6) n (%)
Treatment-emergent AE: Leading to dose reduction (160 mg QD (n=11)): 0 (0.0) n (%)
Treatment-emergent AE: Leading to treatment discontinuation (160 mg QD (n=11)): 2 (18.2) n (%)
Treatment-emergent AE: Serious (160 mg QD (n=11)): 4 (36.4) n (%)
Treatment-related AE (160 mg QD (n=11)): 11 (100.0) n (%)
Treatment-related AE: Grade 3 or higher (160 mg QD (n=11)): 7 (63.6) n (%)
Treatment-related AE: Leading to death (160 mg QD (n=11)): 0 (0.0) n (%)
Treatment-related AE: Leading to dose interruption (160 mg QD (n=11)): 7 (63.6) n (%)
Treatment-related AE: Leading to dose modification (160 mg QD (n=11)): 7 (63.6) n (%)
Treatment-related AE: Leading to dose reduction (160 mg QD (n=11)): 0 (0.0) n (%)
Treatment-related AE: Leading to treatment discontinuation (160 mg QD (n=11)): 2 (18.2) n (%)
Treatment-related AE: Serious (160 mg QD (n=11)): 1 (9.1) n (%)
Patients who experienced a DLT (160 mg QD, one of 11): 9%
Dose-limiting toxicities observed (description) (160 mg QD, one patient): grade 2 nausea
Serious AE: anemia (101 patients): 4.0%
Serious AE: intestinal obstruction (101 patients): 4.0%
Serious AE: malignant gastrointestinal obstruction (101 patients): 3.0%
